{"source": "patent US4598081A", "about": "“1,3-dioxo-1H-benz(de)isoquinoline-2(3H) butyric acid, pharmacologically acceptable salts thereof and compositions containing the same for treatment of diabetes mellitus complications” (Nauchno-Issledovatelsky Institut Endokrinologii I Obmena …, priority 1985, dated 1986)", "key": {"[1]": {"test_system": "basal membrane of the muscle capillaries", "assay": "thickness of capillary basal membrane of limb muscles (electron microscope) in rats with alloxan diabetes", "format": "in vivo, Wistar rats", "conditions": "for average thickness of the capillary basal membrane of the limb muscles, after administration (M): rats, alloxan diabetes, end of the experiment; for biological activity compared with 1,3-dioxo-1H-benz(de)isoquinoline-2(3H)acetic acid: comparison with prior art compound; for thickness of the basal membrane of the muscle capillaries: after treatment"}, "[2]": {"test_system": "white mice, rats, and dogs", "assay": "acute (\"high\") toxicity, symptoms and overall assessment in mice, rats and dogs", "method": "(§1) Mature animals both male and female, weighting 18 to 22 g (white mice), 180 to 220 g (rats), 11 to 15 kg (dogs) were used for said experiments.\n(§2) The drug was introduced in the form of a starch suspension through a gastric tube.\n(§3) Each dose being examined was tested on 5-6 animals.\n(§4) LD50 determined by the Lichfield and Wilcoxon method, or the Van der Waerden method was used as an index of high toxicity. The animals were kept under observation for 5 days."}, "Dogs [3]": {"test_system": "Dogs", "assay": "chronic toxicity, 6 months peroral, dogs", "conditions": "in the dogs only", "method": "(§5) The experiments were performed on rats, rabbits, and dogs.\n(§6) In addition, the action of the proposed drug on the carbohydrate and uropoiesis functions of the liver was also examined.\n(§7) The above indices were examined at the beginning of the experiment and then after 1, 2, 3, 4, 5, and 6 months.\n(§8) At the end of the experiments there were carried out pathomorphological examinations of the lungs, heart, liver, kidneys, adrenal glands, spleen, lymph nodes, intestine, stomach, pancreas, and thyroid glands.\n(§9) On completion of the experiment (six months) the experimental animals were killed: the dogs were killed with thiopental, the rabbits with aeroembolism, and the rats with diethyl ether. Thereafter, the lungs, heart, liver, kidneys, adrenal glands, spleen, lymph nodes, intestine, pancreas and thyroid gland of the killed animals were examined. The material thus obtained was fixed in formole. There were prepared paraffin sections which were then stained with hematoxylin and eosin."}, "[4]": {"assay": "blood indices (fructose, cholesterin, glucose) in rats with alloxan diabetes", "format": "in vivo, Wistar rats", "method": "(§10) The experiments were conducted on Wistar rats (males) having a weight of 140 to 160 g. The diabetes was caused by a single-time hypodermic injection of alloxan (\"Chemapol\") in a dose of 150 mg per kg of body weight.\n(§11) The glood glucose was determined by applying a glucoseoxidase method, cholesterine by […], aldose reductase by the method of Hayman and Kinoshita, sorbitol by a sorbitol-dehydrogenase method."}, "Rats [5]": {"test_system": "Rats", "assay": "acute (\"high\") toxicity, peroral, rats", "method": "as §1, §2, §3, §4"}, "[6]": {"assay": "solubility of the acid and its salts", "format": "physicochemical"}, "[7]": {"test_system": "rats having alloxan diabetes", "assay": "histological examination and biomicroscopy in rats with prolonged alloxan diabetes", "format": "in vivo, Wistar rats", "conditions": "for biochemical and morphological indices: experimental animals", "method": "The diabetes was caused by a single-time hypodermic injection of alloxan (\"Chemapol\") in a dose of 150 mg per kg of body weight.\nBiomicroscopy of the conjunctiva was effected with the aid of a microscope fitted with a camera and a flash lamp.\nFor histological examination pieces of the kidney, liver and miocardium were fixed in 10% neutral formaline dehydrated in alcohol, and the paraffin sections were stained with hematoxylin and eosin, and also by the Van-Gizon method."}, "Dogs [8]": {"test_system": "Dogs", "assay": "acute (\"high\") toxicity, peroral, dogs", "conditions": "dosage 5500", "method": "as §1, §2, §3, §4"}, "Rats [9]": {"test_system": "Rats", "conditions": "rat, in vivo", "method": "as §5, §6, §7, §8, §9"}, "rats, rabbits, and dogs": {"test_system": "rats, rabbits, and dogs", "conditions": "in vivo", "method": "as §5, §6, §7, §8, §9"}, "White mice": {"test_system": "White mice", "assay": "acute (\"high\") toxicity, peroral, white mice", "method": "as §1, §2, §3, §4"}, "aldose reductase": {"test_system": "aldose reductase", "assay": "activity of aldose reductase in tissues of animals with alloxan diabetes", "format": "in vivo, Wistar rats", "conditions": "for Activity of aldose reductase: alloxan diabetes + compound; for inhibition of aldose reductase: tissues of the experimental animals", "method": "as §10, §11"}, "[10]": {"test_system": "sorbitol and fructose in tissues", "assay": "sorbitol and fructose in tissues of animals with alloxan diabetes", "format": "in vivo, Wistar rats", "conditions": "for Fructose / Sorbitol: alloxan diabetes", "method": "as §10, §11"}}, "note": "Entries after “also recorded” stand apart in the source; their conditions may differ. Structures can show the parent of a compound that is named as a salt."}
{"smiles": "O=C(O)CN1C(=O)c2cccc3cccc(c23)C1=O", "note": "[1,3-dioxo-1H-benz(de)isoquinoline-2(3H)acetic acid, reference compound]", "values": [{"measurement": "average thickness of the capillary basal membrane of the limb muscles, after administration (M)", "setting": "[1]", "value": 112, "unit": "nanometers"}]}
{"smiles": "O=C(O)CCCN1C(=O)c2cccc3cccc(c23)C1=O", "note": "[1,3-dioxo-1H-benz(de)isoquinoline-2(3H)butyric acid]", "values": [{"measurement": "time until animals laid down on the side, comatose", "setting": "[2]; acute lethal poisoning", "value": "6 to 8", "unit": "h"}, {"measurement": "time within which the animals died", "setting": "[2]; as a rule, during the first 24-26 hours", "value": "24 to 26", "unit": "h"}, {"measurement": "overall acute toxicity assessment", "setting": "[2]; peroral", "value": "substance with low-toxicity"}, {"measurement": "vessel permeability in the renal glomerulus", "setting": "Dogs [3]", "value": "elevated vessel permeability in the renal glomerulus"}, {"measurement": "change of the level of glucose (blood)", "setting": "[4]", "value": "did not change"}, {"measurement": "cholesterin (blood)", "setting": "[4]; p<0.005", "value": "100±7.1", "unit": "mg %"}, {"measurement": "fructose (blood)", "setting": "[4]; p<0.02", "value": "2.26±0.16", "unit": "mg %"}, {"measurement": "level of glucose (blood)", "setting": "[4]; p<0.5", "value": "340.1±27.8", "unit": "mg %"}, {"measurement": "decrease of thickness of the basal membrane of the muscle capillaries", "setting": "[1]; 50 mg per kg per day, 30 days", "value": "almost one and a half times"}, {"measurement": "microangiopathy", "setting": "[1]; 50 mg per kg per day, 30 days", "value": "Microangiopathy became less pronounced"}, {"measurement": "biological activity compared with 1,3-dioxo-1H-benz(de)isoquinoline-2(3H)acetic acid", "setting": "[1]", "value": "biologically more active than the prior art compound"}, {"measurement": "thickness of the basal membrane of the muscle capillaries", "setting": "[1]; rats having alloxan diabetes for 12 months", "value": "100-120 nm"}, {"measurement": "thickness of the basal membrane of the muscle capillaries", "setting": "[1]; rats having six months alloxan diabetes", "value": 65, "unit": "nm"}, {"measurement": "average thickness of the capillary basal membrane of the limb muscles, after administration (M)", "setting": "[1]", "value": 98.3, "unit": "nanometers"}, {"measurement": "Percentage of animal death (died/in group)", "setting": "Rats [5]; dosage 3000", "value": "0/5"}, {"measurement": "Percentage of animal death (died/in group)", "setting": "Rats [5]; dosage 3500", "value": "2/5"}, {"measurement": "Percentage of animal death (died/in group)", "setting": "Rats [5]; dosage 4000", "value": "1/4"}, {"measurement": "Percentage of animal death (died/in group)", "setting": "Rats [5]; dosage 4500", "value": "3/5"}, {"measurement": "Percentage of animal death (died/in group)", "setting": "Rats [5]; dosage 5000", "value": "4/7"}, {"measurement": "Percentage of animal death (died/in group)", "setting": "Rats [5]; dosage 5500", "value": "4/5"}, {"measurement": "Percentage of animal death (died/in group)", "setting": "Rats [5]; dosage 6000", "value": "5/5"}, {"measurement": "solubility in alcohol", "setting": "[6]; alcohol, when heated", "value": "soluble"}, {"measurement": "solubility in dimethyl-formamide", "setting": "[6]; dimethyl-formamide, when heated", "value": "soluble"}, {"measurement": "solubility in soda and alkali solutions", "setting": "[6]; soda and alkali solutions", "value": "soluble in soda and alkali solutions"}, {"measurement": "solubility in water", "setting": "[6]", "value": "water-insoluble"}, {"measurement": "kidney histology", "setting": "[7]; 50 mg per kg per day, 30 days", "value": "renal glomerulus became more plethoric, the epithelium of the tubules had a more clearly defined boundary, and the protoplasm became less vacuolized and granular"}, {"measurement": "liver histology", "setting": "[7]; 50 mg per kg per day, 30 days", "value": "structure of the lobes and radial location of trabeculas in the liver became clearly defined"}, {"measurement": "myocardium histology", "setting": "[7]; 50 mg per kg per day, 30 days", "value": "Dystrophic lesion in the myocardium was less pronounced"}, {"measurement": "vascular pattern of the iris", "setting": "[7]; 50 mg per kg per day, 30 days", "value": "Inflation and convolution of the vessels decreased, and the blood flow became homogeneous"}, {"measurement": "biochemical and morphological indices", "setting": "[7]", "value": "considerable improvements"}, {"measurement": "Percentage of animal death (died/in group)", "setting": "Dogs [8]", "value": "3/5"}, {"measurement": "change in blood-formation function, composition of the peripheric blood and urogenous function of the liver", "setting": "Rats [9]", "value": "did not lead to a change"}, {"measurement": "changes in the anthropological data", "setting": "rats, rabbits, and dogs", "value": "no changes in the anthropological data"}, {"measurement": "irritating action on the liver and kidneys", "setting": "rats, rabbits, and dogs", "value": "slight non-specific irritating action on the liver and kidneys"}, {"measurement": "lesions in the liver and kidneys", "setting": "rats, rabbits, and dogs", "value": "slight lesions in the liver and kidneys"}, {"measurement": "lesions on dissection", "setting": "rats, rabbits, and dogs", "value": "no lesions"}, {"measurement": "local lesion in the liver and kidneys", "setting": "rats, rabbits, and dogs", "value": "slight local lesion in the liver and kidneys"}, {"measurement": "morphological lesions in organs", "setting": "rats, rabbits, and dogs", "value": "did not cause morphological lesions in many organs"}, {"measurement": "Percentage of animal death (died/in group)", "setting": "White mice; dosage 3750", "value": "3/5"}, {"measurement": "Percentage of animal death (died/in group)", "setting": "White mice; dosage 4000", "value": "2/5"}, {"measurement": "Percentage of animal death (died/in group)", "setting": "White mice; dosage 4500", "value": "4/5"}, {"measurement": "Percentage of animal death (died/in group)", "setting": "White mice; dosage 4750", "value": "5/5"}, {"measurement": "Percentage of animal death (died/in group)", "setting": "White mice; dosage 5000", "value": "3/5"}, {"measurement": "Percentage of animal death (died/in group)", "setting": "White mice; dosage 5250", "value": "5/5"}, {"measurement": "Activity of aldose reductase", "setting": "aldose reductase; Aorta", "value": "7.4 ± 0.8 μmol substruct. per mg of protein"}, {"measurement": "Activity of aldose reductase", "setting": "aldose reductase; Cryst. lens", "value": "3.4 ± 0.30 μmol substruct. per mg of protein"}, {"measurement": "Activity of aldose reductase", "setting": "aldose reductase; Nerve", "value": "25.5 ± 2.1 μmol substruct. per mg of protein"}, {"measurement": "inhibition of aldose reductase", "setting": "aldose reductase", "value": "inhibiting properties with respect to aldose reductase; also recorded: inhibitors of aldose reductase"}, {"measurement": "Fructose", "setting": "[10]; Cryst. lens", "value": "2.85 ± 0.56 μmol per g of tissue"}, {"measurement": "Sorbitol", "setting": "[10]; Cryst. lens", "value": "7.18 ± 0.65 μmol per g of tissue"}, {"measurement": "Fructose", "setting": "[10]; Nerve", "value": "3.25 ± 0.73 μmol per g of tissue"}, {"measurement": "Sorbitol", "setting": "[10]; Nerve", "value": "9.8 ± 0.94 μmol per g of tissue"}, {"measurement": "quantity of sorbitol and fructose in the examined tissues", "setting": "[10]; Table 5", "value": "has decreased"}]}
{"smiles": "O=C(O)CCCN1C(=O)c2cccc3cccc(c23)C1=O", "note": "[Potassium salt, potassium salt of 1,3-dioxo-1H-benz(de)isoquinoline-2(3H)butyric acid]", "values": [{"measurement": "biological activity compared with 1,3-dioxo-1H-benz(de)isoquinoline-2(3H)acetic acid", "setting": "[1]", "value": "biologically more active than the prior art compound"}, {"measurement": "average thickness of the capillary basal membrane of the limb muscles, after administration (M)", "setting": "[1]", "value": 98.6, "unit": "nanometers"}, {"measurement": "solubility in benzole", "setting": "[6]", "value": "insoluble"}, {"measurement": "solubility in ethyl alcohol", "setting": "[6]", "value": "soluble"}, {"measurement": "solubility in water", "setting": "[6]", "value": "readily soluble"}, {"measurement": "biochemical and morphological indices", "setting": "[7]", "value": "considerable improvements"}, {"measurement": "inhibition of aldose reductase", "setting": "aldose reductase", "value": "inhibiting properties with respect to aldose reductase; also recorded: inhibitors of aldose reductase"}]}
{"smiles": "O=C(O)CCCN1C(=O)c2cccc3cccc(c23)C1=O", "note": "[Sodium salt, sodium salt of 1,3-dioxo-1H-benz(de)isoquinoline-2(3H)butyric acid]", "values": [{"measurement": "biological activity compared with 1,3-dioxo-1H-benz(de)isoquinoline-2(3H)acetic acid", "setting": "[1]", "value": "biologically more active than the prior art compound"}, {"measurement": "average thickness of the capillary basal membrane of the limb muscles, after administration (M)", "setting": "[1]", "value": 102, "unit": "nanometers"}, {"measurement": "solubility in benzole", "setting": "[6]", "value": "insoluble"}, {"measurement": "solubility in ethyl alcohol", "setting": "[6]", "value": "slightly soluble"}, {"measurement": "solubility in water", "setting": "[6]", "value": "readily soluble"}, {"measurement": "biochemical and morphological indices", "setting": "[7]", "value": "considerable improvements"}, {"measurement": "inhibition of aldose reductase", "setting": "aldose reductase", "value": "inhibiting properties with respect to aldose reductase; also recorded: inhibitors of aldose reductase"}]}
